Results from ChEMBL document CHEMBL1137993, “Novel histone deacetylase inhibitors: cyclic tetrapeptide with trifluoromethyl and pentafluoroethyl ketones” (Bioorg Med Chem Lett, 2004).

tested on: Nucleic Acid

| EC50 [µM] | SMILES |
| --- | --- |
| 3.09 | CC[C@H](C)[C@@H]1NC(=O)[C@@H](Cc2ccc(OC)cc2)NC(=O)[C@H](CCCCCC(=O)C(F)(F)F)NC(=O)[C@H]2CCCN2C1=O |
| 0.77 | CC(/C=C/C(=O)NO)=C\[C@@H](C)C(=O)c1ccc(N(C)C)cc1 [TRICHOSTATIN] |
| 31.1 | CC[C@H](C)[C@@H]1NC(=O)[C@@H](Cc2ccc(OC)cc2)NC(=O)[C@H](CCCCCC(=O)C(F)(F)C(F)(F)F)NC(=O)[C@H]2CCCN2C1=O |
